# PubChem BioAssay (NCI)
#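 48-hour exposure; five concentrations; linearly interpolated endpoints. GI50: concentration for 50% inhibition of growth. At the TGI there is no net growth.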
# Experiments:
# Assay in all cases: DTP human tumour cell line panel, 48 h
# 786-0 renal = tested on: 786-0 renal
# A498 renal = tested on: A498 renal
# A549 NSCLC = tested on: A549 NSCLC
# ACHN renal = tested on: ACHN renal
# BT-549 breast = tested on: BT-549 breast
# CAKI-1 renal = tested on: CAKI-1 renal
# CCRF-CEM leukemia = tested on: CCRF-CEM leukemia
# COLO 205 colon = tested on: COLO 205 colon
# DU-145 prostate = tested on: DU-145 prostate
# EKVX NSCLC = tested on: EKVX NSCLC
# HCC-2998 colon = tested on: HCC-2998 colon
# HCT-116 colon = tested on: HCT-116 colon
# HCT-15 colon = tested on: HCT-15 colon
# HL-60(TB) leukemia = tested on: HL-60(TB) leukemia
# HOP-62 NSCLC = tested on: HOP-62 NSCLC
# HS 578T breast = tested on: HS 578T breast
# HT29 colon = tested on: HT29 colon
# IGROV1 ovarian = tested on: IGROV1 ovarian
# K-562 leukemia = tested on: K-562 leukemia
# KM12 colon = tested on: KM12 colon
# LOX IMVI melanoma = tested on: LOX IMVI melanoma
# M14 melanoma = tested on: M14 melanoma
# MALME-3M melanoma = tested on: MALME-3M melanoma
# MCF7 breast = tested on: MCF7 breast
# MDA-MB-231 breast = tested on: MDA-MB-231 breast
# MDA-MB-435 = tested on: MDA-MB-435
# MOLT-4 leukemia = tested on: MOLT-4 leukemia
# NCI-H226 lung = tested on: NCI-H226 lung
# NCI-H23 lung = tested on: NCI-H23 lung
# NCI-H522 lung = tested on: NCI-H522 lung
# NCI/ADR-RES ovarian = tested on: NCI/ADR-RES ovarian
# OVCAR-3 ovarian = tested on: OVCAR-3 ovarian
# OVCAR-4 ovarian = tested on: OVCAR-4 ovarian
# OVCAR-5 ovarian = tested on: OVCAR-5 ovarian
# OVCAR-8 ovarian = tested on: OVCAR-8 ovarian
# PC-3 prostate = tested on: PC-3 prostate
# RPMI-8226 leukemia = tested on: RPMI-8226 leukemia
# RXF 393 renal = tested on: RXF 393 renal
# SF-268 CNS = tested on: SF-268 CNS
# SF-295 CNS = tested on: SF-295 CNS
# SF-539 CNS = tested on: SF-539 CNS
# SK-MEL-2 melanoma = tested on: SK-MEL-2 melanoma
# SK-MEL-5 melanoma = tested on: SK-MEL-5 melanoma
# SK-OV-3 ovarian = tested on: SK-OV-3 ovarian
# SN12C renal = tested on: SN12C renal
# SNB-19 CNS = tested on: SNB-19 CNS
# SNB-75 CNS = tested on: SNB-75 CNS
# SR leukemia = tested on: SR leukemia
# SW-620 colon = tested on: SW-620 colon
# T-47D breast = tested on: T-47D breast
# TK-10 renal = tested on: TK-10 renal
# U251 CNS = tested on: U251 CNS
# UACC-257 melanoma = tested on: UACC-257 melanoma
# UACC-62 melanoma = tested on: UACC-62 melanoma
# UO-31 renal = tested on: UO-31 renal
# HOP-92 NSCLC = tested on: HOP-92 NSCLC
# NCI-H460 lung = tested on: NCI-H460 lung
# SK-MEL-28 melanoma = tested on: SK-MEL-28 melanoma
compound,measurement,setting,value
COC(=O)C1=C(N)C2=C(N)Oc3ccccc3C2CC1=C(C#N)C#N (centres undefined),TGI,786-0 renal,> 100 µM
same,TGI,A498 renal,68.6 µM
same,TGI,A549 NSCLC,> 100 µM
same,TGI,ACHN renal,72.8 µM
same,TGI,BT-549 breast,58.2 µM
same,TGI,CAKI-1 renal,72.2 µM
same,TGI,CCRF-CEM leukemia,> 100 µM
same,TGI,COLO 205 colon,44.1 µM
same,TGI,DU-145 prostate,61.9 µM
same,TGI,EKVX NSCLC,84.4 µM
same,TGI,HCC-2998 colon,32.9 µM
same,TGI,HCT-116 colon,99.2 µM
same,TGI,HCT-15 colon,36.8 µM
same,TGI,HL-60(TB) leukemia,> 100 µM
same,TGI,HOP-62 NSCLC,> 100 µM
same,TGI,HS 578T breast,97.9 µM
same,TGI,HT29 colon,53.3 µM
same,TGI,IGROV1 ovarian,48.4 µM
same,TGI,K-562 leukemia,57.3 µM
same,TGI,KM12 colon,29.5 µM
same,TGI,LOX IMVI melanoma,44.2 µM
same,TGI,M14 melanoma,43.3 µM
same,TGI,MALME-3M melanoma,58.1 µM
same,TGI,MCF7 breast,93.1 µM
same,TGI,MDA-MB-231 breast,59.4 µM
same,TGI,MDA-MB-435,> 100 µM
same,TGI,MOLT-4 leukemia,> 100 µM
same,TGI,NCI-H226 lung,> 100 µM
same,TGI,NCI-H23 lung,54 µM
same,TGI,NCI-H522 lung,40.7 µM
same,TGI,NCI/ADR-RES ovarian,47.5 µM
same,TGI,OVCAR-3 ovarian,> 100 µM
same,TGI,OVCAR-4 ovarian,76.1 µM
same,TGI,OVCAR-5 ovarian,81.7 µM
same,TGI,OVCAR-8 ovarian,55.7 µM
same,TGI,PC-3 prostate,> 100 µM
same,TGI,RPMI-8226 leukemia,48.6 µM
same,TGI,RXF 393 renal,> 100 µM
same,TGI,SF-268 CNS,89.4 µM
same,TGI,SF-295 CNS,90.2 µM
same,TGI,SF-539 CNS,71.2 µM
same,TGI,SK-MEL-2 melanoma,> 100 µM
same,TGI,SK-MEL-5 melanoma,52.7 µM
same,TGI,SK-OV-3 ovarian,> 100 µM
same,TGI,SN12C renal,92.6 µM
same,TGI,SNB-19 CNS,70.4 µM
same,TGI,SNB-75 CNS,68.6 µM
same,TGI,SR leukemia,> 100 µM
same,TGI,SW-620 colon,> 100 µM
same,TGI,T-47D breast,67.1 µM
same,TGI,TK-10 renal,52 µM
same,TGI,U251 CNS,> 100 µM
same,TGI,UACC-257 melanoma,> 100 µM
same,TGI,UACC-62 melanoma,36.3 µM
same,TGI,UO-31 renal,53.6 µM
CCCCNC(=O)CC1=C(C)/C(=C/c2[nH]c(-c3ccc[nH]3)cc2OC)N=C1C,GI50,786-0 renal,2.04 µM
same,TGI,786-0 renal,4.64 µM
same,GI50,A498 renal,2.54 µM
same,TGI,A498 renal,7.43 µM
same,GI50,A549 NSCLC,3.6 µM
same,TGI,A549 NSCLC,11.2 µM
same,GI50,ACHN renal,2.26 µM
same,TGI,ACHN renal,5.64 µM
same,GI50,BT-549 breast,3.74 µM
same,TGI,BT-549 breast,19.9 µM
same,GI50,CAKI-1 renal,2.56 µM
same,TGI,CAKI-1 renal,9.3 µM
same,GI50,CCRF-CEM leukemia,1.71 µM
same,TGI,CCRF-CEM leukemia,8.88 µM
same,GI50,COLO 205 colon,1.68 µM
same,TGI,COLO 205 colon,4.04 µM
same,GI50,DU-145 prostate,4 µM
same,TGI,DU-145 prostate,16.6 µM
same,GI50,EKVX NSCLC,2.29 µM
same,TGI,EKVX NSCLC,15.5 µM
same,GI50,HCT-15 colon,1.88 µM
same,TGI,HCT-15 colon,4.12 µM
same,GI50,HL-60(TB) leukemia,2.84 µM
same,TGI,HL-60(TB) leukemia,6.87 µM
same,GI50,HOP-62 NSCLC,2.5 µM
same,TGI,HOP-62 NSCLC,9.76 µM
same,GI50,HOP-92 NSCLC,2.17 µM
same,TGI,HOP-92 NSCLC,7.09 µM
same,GI50,HS 578T breast,2.66 µM
same,TGI,HS 578T breast,9.11 µM
same,GI50,HT29 colon,2.18 µM
same,TGI,HT29 colon,11.1 µM
same,GI50,IGROV1 ovarian,3.23 µM
same,TGI,IGROV1 ovarian,10.3 µM
same,GI50,KM12 colon,1.8 µM
same,TGI,KM12 colon,10.6 µM
same,GI50,LOX IMVI melanoma,1.56 µM
same,TGI,LOX IMVI melanoma,3.17 µM
same,GI50,M14 melanoma,1.83 µM
same,TGI,M14 melanoma,3.91 µM
same,GI50,MALME-3M melanoma,2.28 µM
same,TGI,MALME-3M melanoma,5.43 µM
same,GI50,MCF7 breast,2.7 µM
same,TGI,MCF7 breast,9.39 µM
same,GI50,MDA-MB-231 breast,1.48 µM
same,TGI,MDA-MB-231 breast,8.04 µM
same,GI50,MDA-MB-435,2.87 µM
same,TGI,MDA-MB-435,9.71 µM
same,GI50,MOLT-4 leukemia,1.93 µM
same,TGI,MOLT-4 leukemia,9 µM
same,GI50,NCI-H226 lung,2.74 µM
same,TGI,NCI-H226 lung,8.77 µM
same,GI50,NCI-H23 lung,3.03 µM
same,TGI,NCI-H23 lung,21 µM
same,GI50,NCI-H460 lung,2.71 µM
same,TGI,NCI-H460 lung,11.7 µM
same,GI50,NCI-H522 lung,1.8 µM
same,TGI,NCI-H522 lung,4.89 µM
same,GI50,NCI/ADR-RES ovarian,3.02 µM
same,TGI,NCI/ADR-RES ovarian,9.89 µM
same,GI50,OVCAR-3 ovarian,2.58 µM
same,TGI,OVCAR-3 ovarian,9.77 µM
same,GI50,OVCAR-4 ovarian,2.12 µM
same,TGI,OVCAR-4 ovarian,19.2 µM
same,GI50,OVCAR-5 ovarian,3.19 µM
same,TGI,OVCAR-5 ovarian,34.1 µM
same,GI50,OVCAR-8 ovarian,3.44 µM
same,TGI,OVCAR-8 ovarian,11.1 µM
same,GI50,PC-3 prostate,2.36 µM
same,TGI,PC-3 prostate,14.5 µM
same,GI50,RPMI-8226 leukemia,1.95 µM
same,TGI,RPMI-8226 leukemia,4.43 µM
same,GI50,RXF 393 renal,3.29 µM
same,TGI,RXF 393 renal,11.6 µM
same,GI50,SF-268 CNS,2.66 µM
same,TGI,SF-268 CNS,15 µM
same,GI50,SF-295 CNS,1.6 µM
same,TGI,SF-295 CNS,3.48 µM
same,GI50,SF-539 CNS,2.75 µM
same,TGI,SF-539 CNS,9.31 µM
same,GI50,SK-MEL-2 melanoma,1.72 µM
same,TGI,SK-MEL-2 melanoma,3.87 µM
same,GI50,SK-OV-3 ovarian,2.76 µM
same,TGI,SK-OV-3 ovarian,8.96 µM
same,GI50,SNB-19 CNS,4.09 µM
same,TGI,SNB-19 CNS,30.1 µM
same,GI50,SNB-75 CNS,1.85 µM
same,TGI,SNB-75 CNS,7.36 µM
same,GI50,SR leukemia,1.87 µM
same,TGI,SR leukemia,5.43 µM
same,GI50,SW-620 colon,3.23 µM
same,TGI,SW-620 colon,13.9 µM
same,GI50,T-47D breast,2.41 µM
same,TGI,T-47D breast,7.39 µM
same,GI50,TK-10 renal,2.83 µM
same,TGI,TK-10 renal,8.8 µM
same,GI50,U251 CNS,2.86 µM
same,TGI,U251 CNS,12.1 µM
same,GI50,UACC-257 melanoma,2.26 µM
same,TGI,UACC-257 melanoma,4.54 µM
same,GI50,UO-31 renal,1.9 µM
same,TGI,UO-31 renal,4 µM
O=C(O)c1cc(-c2ccc(-c3ccccc3)cc2)nc2cc3ccccc3cc12,TGI,786-0 renal,67.6 µM
same,TGI,A498 renal,> 100 µM
same,TGI,A549 NSCLC,> 100 µM
same,TGI,ACHN renal,> 100 µM
same,TGI,BT-549 breast,> 100 µM
same,TGI,CAKI-1 renal,> 100 µM
same,TGI,CCRF-CEM leukemia,39.8 µM
same,TGI,COLO 205 colon,> 100 µM
same,TGI,DU-145 prostate,> 100 µM
same,TGI,EKVX NSCLC,> 100 µM
same,TGI,HCT-116 colon,> 100 µM
same,TGI,HCT-15 colon,> 100 µM
same,TGI,HL-60(TB) leukemia,> 100 µM
same,TGI,HOP-62 NSCLC,> 100 µM
same,TGI,HOP-92 NSCLC,82.2 µM
same,TGI,HS 578T breast,> 100 µM
same,TGI,HT29 colon,> 100 µM
same,TGI,IGROV1 ovarian,> 100 µM
same,TGI,K-562 leukemia,> 100 µM
same,TGI,KM12 colon,> 100 µM
same,TGI,LOX IMVI melanoma,> 100 µM
same,TGI,M14 melanoma,> 100 µM
same,TGI,MALME-3M melanoma,> 100 µM
same,TGI,MCF7 breast,> 100 µM
same,TGI,MDA-MB-231 breast,> 100 µM
same,TGI,MDA-MB-435,> 100 µM
same,TGI,MOLT-4 leukemia,> 100 µM
same,TGI,NCI-H226 lung,> 100 µM
same,TGI,NCI-H23 lung,> 100 µM
same,TGI,NCI-H460 lung,> 100 µM
same,TGI,NCI-H522 lung,> 100 µM
same,TGI,NCI/ADR-RES ovarian,> 100 µM
same,TGI,OVCAR-3 ovarian,> 100 µM
same,TGI,OVCAR-4 ovarian,> 100 µM
same,TGI,OVCAR-5 ovarian,> 100 µM
same,TGI,OVCAR-8 ovarian,> 100 µM
same,TGI,PC-3 prostate,> 100 µM
same,TGI,RPMI-8226 leukemia,> 100 µM
same,TGI,RXF 393 renal,> 100 µM
same,TGI,SF-268 CNS,> 100 µM
same,TGI,SF-295 CNS,> 100 µM
same,TGI,SF-539 CNS,> 100 µM
same,TGI,SK-MEL-2 melanoma,> 100 µM
same,TGI,SK-MEL-28 melanoma,> 100 µM
same,TGI,SK-MEL-5 melanoma,> 100 µM
same,TGI,SK-OV-3 ovarian,> 100 µM
same,TGI,SN12C renal,> 100 µM
same,TGI,SNB-19 CNS,> 100 µM
same,TGI,SNB-75 CNS,69.9 µM
same,TGI,SR leukemia,> 100 µM
same,TGI,SW-620 colon,> 100 µM
same,TGI,T-47D breast,> 100 µM
same,TGI,TK-10 renal,> 100 µM
same,TGI,U251 CNS,> 100 µM
same,TGI,UACC-257 melanoma,> 100 µM
same,TGI,UACC-62 melanoma,> 100 µM
same,TGI,UO-31 renal,> 100 µM
